This is an account of results in US4540691A, “Dopamine agonists and use thereof” (Nelson Research & Development Co., priority 1984, dated 1985).

The test system of one data set is dopamine receptor. The data set can be described thus: Dopamine receptor agonist activity, overall conclusion from various tests. Particulars: pre- and post-synaptic dopaminergic tests. The procedure:
The dopaminergic activity of three analogues (A,B,C) was evaluated in comparison with the indolic structural analogue RU 29717 (Nedelec et al., 1983, J. Med. Chem., 26, 522) in three test systems. Compounds B and C are within the scope of the present invention.

For data set [1], the system named is homovanillic acid, HVA (corpus striatum). The data set can be described thus: Effect on dopamine metabolism: lowering of striatal HVA levels. The format is in vivo, Female Wistar rats. To be noted: for HVA % control / HVA content of corpus striatum: injected, 60 min, mean ± S.E.M. The procedure:
Dopamine agonists are known to produce a lowering of the striatal levels of one of the main metabolites of dopamine, homovanillic acid, HVA, (Feenstra et al., 1983 Arch. Pharmacol., 324, 108).
Female Wistar rats (160-180g) were injected with the drugs under test dissolved in saline and were then decapitated 60 min later. The HVA content of the corpus striatum was determined according to the method of Westerink and Mulder (J. Neurochem., 1981 36, 1449).

For the next data set, the system named is DA receptor. In words: Radioligand binding assay: displacement of ^3 H-5,6-dihydroxy-N,N-dipropyl-2-aminotetralin (DA receptor agonist) from homogenates of rat corpus striatum. To be noted: for IC50: mean of 3 independent experiments each in triplicate, 10^-11 to 10^-5 M, read-out: IC50 (concentration of drug required to inhibit the specific binding by 50%). The method, then: The ability of the above compounds to displace the specific binding of ^3 H-5,6-dihydroxy-N,N-dipropyl-2-aminotetralin, a potent DA receptor agonist (Feenstra et al., Life Sci., 32, 1313 (1983)) to homogenates of rat corpus striatum was studied.
The assay was performed essentially according to the method of Leysen and Gommeran J. Neurochem. 36, 201 (1981) for ^3 H-apomorphine binding.
The IC50 is the concentration of drug required to inhibit the specific binding by 50%. The results are presented as the mean values of 3 independent experiments each analyzed in triplicate over the concentration range 10^-11 to 10^-5 M.

The subject of data set [2] is presynaptic dopamine receptors. The data set can be described thus: Presynaptic DA activity in the GBL model: counteracting GBL-induced rise in striatal DOPA levels. The format is in vivo, rat. To be noted: for % Reversal vs. GBL group / DOPA (striatal level): 0.2 μmol/kg; for % Reversal vs. GBL group: GBL + NSD 1015 group = 0, NSD 1015 group = 100; for DOPA (striatal level): GBL model, NSD 1015 as decarboxylase inhibitor. The method, then:
The ability of a dopamine agonist to counteract the gamma-butyrolactone (GBL) induced rise in DOPA levels in the rat striatum is an indication of its activity at presynaptic dopamine receptors. (Walters and Roth, 1976 Arch. Pharmacol., 296, 5).
The experiments were performed in rats according to the method of Walters and Roth (ibid). The striatal levels of DOPA were determined using the method of Westerink and Mulder (1981 J. Neurochem. 36, 1449). NSD 1015 was used as decarboxylase inhibitor.

In data set [3] the test system is adrenergic and serotonergic. To be noted: literature background; cited from earlier work.
In the next data set the test system is dopaminergic. Particulars: literature background; cited from earlier work.
For data set [4] the following is noted: literature background; cited from earlier work.

“Also recorded” adds a separate entry of the source.

Consider `CCCN1CCOC2c3cccc(O)c3CCC21` (centres unmarked) [Compound B], for which, in the data set with dopamine receptor, the “dopamine agonist activity (general conclusion in words)” value (“dopamine agonist activity” below) was “useful levels of dopamine agonist activity”. In addition, in data set [1] (0.4 μmol/kg), the HVA % control was 98.0 ± 12.2 % control and the “HVA content of corpus striatum” value was found to be 0.96 ± 0.12 µg/g. Moreover, in the data set on DA receptor, the “potency in binding assay (conclusion in words)” value was “some activity” and the IC50 came out at 80 nM. Also, in data set [2], the “% Reversal vs. GBL group” value amounted to 17.3% and the “DOPA (striatal level)” value was found to be 4.80 ± 0.37 µg/g.

Turning to `CN1CCc2cccc3c2[C@H]1Cc1ccc(O)c(O)c1-3` [Apomorphine, reference compound], on DA receptor, the IC50 worked out at 3.2 nM.

On to `CCCN1CCOC2c3ccccc3CCC21` (centres unmarked) [Compound A], for which the “dopamine agonist activity” value in the data set with dopamine receptor is on record as “significantly less active”. Also, in data set [1] (0.4 μmol/kg), the HVA % control is given as 91.8 ± 2.0 % control and the “HVA content of corpus striatum” value was found to be 0.90 ± 0.02 µg/g. Moreover, in the data set with DA receptor, the “potency in binding assay (conclusion in words)” value is “the least potent” and the IC50 was determined as 110 nM. Also, in data set [2], the “% Reversal vs. GBL group” value is 4.5% and the “DOPA (striatal level)” value worked out at 5.25 ± 0.09 µg/g.

As for `CCCN1CCO[C@@H]2c3cccc4[nH]cc(c34)C[C@H]21` [RU 29717, N-PROPYL-9-OXAERGOLINE, reference compound], in data set [1] (0.2 μmol/kg), the HVA % control is 51.0 ± 4.1 % control and the “HVA content of corpus striatum” value stood at 0.50 ± 0.04 µg/g. In data set [1] (0.4 μmol/kg), the HVA % control was 46.9 ± 2.0 % control and the “HVA content of corpus striatum” value amounted to 0.46 ± 0.02 µg/g. The IC50 at DA receptor amounted to 3 nM. The “adrenergic and serotonergic activity (in words)” value in data set [3] was “has adrenergic and serotonergic activity”. Besides, in data set [2], the “% Reversal vs. GBL group” value worked out at 88.4% and the “DOPA (striatal level)” value was determined as 2.30 ± 0.16 µg/g. Moreover, the “dopaminergic agonist activity (in words)” value with dopaminergic is listed as “extremely potent direct acting dopaminergic agonist, comparing favorably with pergolide”. Moreover, the “emetic activity (in words)” value in data set [4] is reported as “Its activity as an emetic is a significant problem”.

As to `CCCN1CCOC2c3cc(O)ccc3CCC21` (centres unmarked) [Compound C], the “dopamine agonist activity” value in the data set on dopamine receptor is reported as “useful levels of dopamine agonist activity; also recorded: as active as the known DA agonist RU 29717”. For the same compound, in data set [1] (0.2 μmol/kg), the HVA % control was 63.3 ± 4.1 % control and the “HVA content of corpus striatum” value is 0.62 ± 0.04 µg/g. Also, in data set [1] (0.4 μmol/kg), the HVA % control is listed as 48.0 ± 1.0 % control and the “HVA content of corpus striatum” value worked out at 0.47 ± 0.01 µg/g. Besides, the “activity on HVA levels (conclusion in words)” value in data set [1] (conclusion) was “comparable in activity to RU 29717”. Besides, the IC50 on DA receptor came to 2.8 nM. Moreover, in data set [2], the “% Reversal vs. GBL group” value is on record as 94.6% and the “DOPA (striatal level)” value worked out at 2.08 ± 0.12 µg/g. Moreover, the “potency in GBL model (conclusion in words)” value in data set [2] (conclusion) is reported as “slightly more potent than RU 29717”.
